Measured values taken from US20230331803A1, “CO-AGONISTS OF THE GLP-1 AND AMYLIN RECEPTORS” (priority 2020, published 2023).
Like-named read-outs stand apart in the source and are kept apart here. Starred links: 1 amine or outer side, 2 acyl side, 3 side chain; linkers in the order of their positions; H or OH if unused. Positions of bridges follow the written chain, without caps; N, C: chain ends. Non-standard residues stand in square brackets, D forms with d. Groups on a side chain read outwards from the residue. *: point of attachment. X1 = O=C(O)CCCCCCCCCCCCCCC(=O)N[C@@H](CCC(=O)NCCOCCOCC(=O)NCCOCCOCC(=O)NCCCC[C@H](NC(=O)COCCOCCNC(=O)COCCOCCNC(=O)CC[C@H](NC(=O)CCCCCCCCCCCCCCC(=O)O)C(=O)O)C(=O)*)C(=O)O; Butyryl(4-SO2NHCO(CH2)16Tz) = O=C(CCCCCCCCCCCCCCCCc1nnn[nH]1)NS(=O)(=O)CCCC(=O)*; Undecanoyl(11-OPh(4-COOH)) = O=C(O)c1ccc(OCCCCCCCCCCC(=O)*)cc1; Decanoyl(10-(4-HOOC-PhO)) = O=C(O)c1ccc(OCCCCCCCCCC(=O)*)cc1; C20 diacid = O=C(O)CCCCCCCCCCCCCCCCCCC(=O)*; C18 diacid = O=C(O)CCCCCCCCCCCCCCCCC(=O)*; C16 diacid = O=C(O)CCCCCCCCCCCCCCC(=O)*; γGlu = O=C(O)[C@H](CCC(=O)[*:2])N[*:1]; εLys = N[C@@H](CCCCN[*:1])C(=O)[*:2]; AEEA = NCCOCCOCC(=O)O; Aib = CC(C)(N)C(=O)O; Ahx = NCCCCCC(=O)O

Experiments:
human GLP-1 receptor = biological target: T1, human GLP-1 receptor (Homo sapiens, UniProt P43220); test: Human GLP-1 receptor in vitro potency assay (CRE-luciferase reporter, BHK cells); assay type: cell-based
T1 construct: expressed in transfected cells; host or cells: BHK (Baby Hamster Kidney) cells, clone BHK 467-12A KZ-10, stably transfected, with CRE-luciferase reporter
T1 sequence (P43220 24-463): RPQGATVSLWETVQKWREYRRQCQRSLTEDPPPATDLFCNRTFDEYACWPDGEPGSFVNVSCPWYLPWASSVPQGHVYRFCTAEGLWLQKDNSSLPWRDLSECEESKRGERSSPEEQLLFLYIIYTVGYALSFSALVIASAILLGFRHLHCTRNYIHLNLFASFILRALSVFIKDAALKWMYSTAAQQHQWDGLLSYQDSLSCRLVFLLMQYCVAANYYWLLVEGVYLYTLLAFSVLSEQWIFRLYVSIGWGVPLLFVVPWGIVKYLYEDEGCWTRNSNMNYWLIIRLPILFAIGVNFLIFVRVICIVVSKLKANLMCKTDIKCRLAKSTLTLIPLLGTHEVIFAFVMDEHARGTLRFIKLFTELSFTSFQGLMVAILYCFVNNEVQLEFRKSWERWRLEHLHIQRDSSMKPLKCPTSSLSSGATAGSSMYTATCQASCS
Procedure: It is thus possible to measure GLP-1 receptor activity using a CRE-luciferase reporter gene introduced into Baby Hamster Kidney (BHK) cells co-expressing the GLP-1 receptor.
Cells were aliquoted and stored at -180° C. until use.
Plates were sealed and incubated at room temperature with gentle shaking for 30 minutes while protected from light. Luminescence was detected on a luminescence plate reader e.g. a Synergy 2 (BioTek).

[1] = biological target: T2, human amylin receptor (hAmyR3) (Homo sapiens, UniProt O60896+P30988); test: Human amylin receptor in vitro potency assay (CRE-luciferase reporter, BHK cells); assay type: cell-based;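 further: BHK cells expressing human calcitonin receptor plus RAMP3 (amylin-3 receptor) with a CRE-luciferase reporter, agonist activity read as luminescence from cAMP-driven transcription, 7-point serial dilutions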
T2 construct: host or cells: BHK cells (Hollex-1 line: human calcitonin receptor (a) + CRE-Luc), further transfected with human RAMP3
T2 sequence (P30988 25-474): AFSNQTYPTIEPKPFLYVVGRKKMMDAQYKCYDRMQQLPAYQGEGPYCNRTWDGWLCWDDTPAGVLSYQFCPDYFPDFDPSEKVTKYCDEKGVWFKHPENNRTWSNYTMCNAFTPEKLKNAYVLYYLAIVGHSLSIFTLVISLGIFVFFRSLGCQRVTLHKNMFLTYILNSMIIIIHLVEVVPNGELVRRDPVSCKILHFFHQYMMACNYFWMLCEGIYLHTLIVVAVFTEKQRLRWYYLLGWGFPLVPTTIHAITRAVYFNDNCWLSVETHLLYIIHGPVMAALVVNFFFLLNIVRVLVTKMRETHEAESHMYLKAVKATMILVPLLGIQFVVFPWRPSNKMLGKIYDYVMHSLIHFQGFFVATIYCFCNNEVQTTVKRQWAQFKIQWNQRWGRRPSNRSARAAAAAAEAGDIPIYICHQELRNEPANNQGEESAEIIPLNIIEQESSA
T2 sequence (O60896 24-148): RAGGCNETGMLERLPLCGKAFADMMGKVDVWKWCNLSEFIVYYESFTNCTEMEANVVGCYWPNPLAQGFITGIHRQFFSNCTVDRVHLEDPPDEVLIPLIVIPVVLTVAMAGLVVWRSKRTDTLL

[2] = Table 4a, BHK cells expressing human GLP-1R, CRE-Luc, 3 hours, read-out: Human GLP-1R potency [EC50 (pM)]
[3] = Table 4a, BHK hAmyR3/CRE-Luc cells, 3 hours, read-out: Human AmyR3 potency [EC50 (pM)]

Row | Compound | EC50 (human GLP-1 receptor) | EC50 [1] | EC50 (human GLP-1 receptor; [2]) | EC50 [1, 3] | Ability to agonise the amylin receptor, in words ([1]; Tables 4a-4c)
1 | CC[C@H](C)[C@H](NC(=O)[C@H](Cc1ccccc1)NC(=O)[C@H](CCC(=O)O)NC(=O)[C@H](CCCNC(=N)N)NC(=O)[C@H](C)NC(=O)[C@H](C)NC(=O)[C@H](CCC(N)=O)NC(=O)[C@H](CCC(=O)O)NC(=O)[C@H](CCC(=O)O)NC(=O)[C@H](CC(C)C)NC(=O)[C@H](Cc1ccc(O)cc1)NC(=O)[C@H](CO)NC(=O)[C@H](CO)NC(=O)[C@H](CCCCNC(=O)COCCOCCNC(=O)COCCOCCNC(=O)CC[C@H](NC(=O)CCCCCCCCCCCCCCCCC(=O)O)C(=O)O)NC(=O)[C@H](CC(=O)O)NC(=O)[C@H](CO)NC(=O)[C@@H](NC(=O)[C@H](Cc1ccccc1)NC(=O)[C@@H](NC(=O)CNC(=O)[C@H](CCC(=O)O)NC(=O)[C@H](Cc1c[nH]c2ccccc12)NC(=O)[C@@H](N)Cc1c[nH]cn1)[C@@H](C)O)[C@@H](C)O)C(=O)N[C@@H](CCC(=O)O)C(=O)N[C@@H](Cc1c[nH]c2ccccc12)C(=O)N[C@@H](CC(C)C)C(=O)N[C@H](C(=O)N[C@@H](CCCNC(=N)N)C(=O)NCC(=O)N[C@@H](CCCNC(=N)N)C(=O)NCC(=O)N[C@@H](CCC(=O)O)C(=O)N[C@@H](C)C(=O)N[C@@H](CO)C(=O)N[C@@H](CCC(=O)O)C(=O)N[C@@H](CC(C)C)C(=O)N[C@@H](CO)C(=O)N[C@H](C(=O)N[C@@H](C)C(=O)N[C@@H](C)C(=O)N[C@@H](CC(C)C)C(=O)NCC(=O)N[C@@H](CCCNC(=N)N)C(=O)N[C@@H](CC(C)C)C(=O)N[C@@H](CO)C(=O)N[C@@H](C)C(=O)N[C@@H](CCC(=O)O)C(=O)N[C@@H](CC(C)C)C(=O)N[C@@H](Cc1c[nH]cn1)C(=O)N[C@@H](CCC(=O)O)C(=O)N[C@@H](CC(C)C)C(=O)N[C@@H](C)C(=O)N[C@H](C(=O)N[C@@H](CC(C)C)C(=O)N1CCC[C@H]1C(=O)N[C@@H](CCCNC(=N)N)C(=O)N[C@H](C(=O)N[C@@H](CCC(=O)O)C(=O)N[C@H](C(=O)NCC(=O)N[C@@H](CO)C(=O)NCC(=O)N[C@@H](CO)C(=O)N1CCC[C@H]1C(N)=O)[C@@H](C)O)[C@@H](C)O)[C@@H](C)O)[C@@H](C)O)C(C)C [Compound 0273] | 24.9 pM | 18 pM | – | – | –
2 | H-H[Aib]EGTFTSDVSSYLEGQAAREFIAWLVRGRGEGEGEK([AEEA-AEEA-γGlu-C18 diacid])EASELSTAALGRLSAELHELATLPRTETGSGSP-NH2 [Compound 0010] | – | – | 5.4 pM | 37 pM | –
3 | H[Aib]EGTFTSDVSSYLEEQAARK([AEEA-AEEA-γGlu-C18 diacid])FIAWLVRGK([AEEA-AEEA-γGlu-C18 diacid])GGGGGGGGGEASELSTAALGRLSAELHELATLPRTETGSGSP-NH2 [Compound 0109] | – | – | 3.2 pM | 19.1 pM | –
4 | H-H[Aib]EGTFTSDVSSYLEEQAAREFIAWLVRGRK([Ahx-Ahx-γGlu-C18 diacid])GGGGEASELSTAALGRLSAELHELATLPRTETGSGSP-NH2 [Compound 0658] | – | – | 3.1 pM | 11 pM | –
5 | H-H[Aib]EGTFTSDVSSYLEEQAAREFIAWLVK([AEEA-AEEA-γGlu-C18 diacid])GRGGGGGEASELSTAALGRLSAELHELATLPRTETGSGSP-NH2 [Compound 0144] | – | – | 7.1 pM | 16.8 pM | –
6 | H-H[Aib]EGTFTSDVSSYLEEQAAREFIAWLVRGRK([AEEA-AEEA-γGlu-C18 diacid])EASELSTAALGRLSAELHELATLPRTETGSGSP-NH2 [Compound 0115] | – | – | 2.2 pM | 22.8 pM | –
7 | H[Aib]EGTFTSDVSSYLEEQAARK([AEEA-AEEA-γGlu-C16 diacid])FIAWLVRGRGGK([AEEA-AEEA-γGlu-C16 diacid])EASELSTAALGRLSAELHELATLPRTETGSGSP-NH2 [Compound 0074] | – | – | – | 60.9 pM | –
8 | H-H[Aib]EGTFTSDVSSYLEEQAAREFIAWLVRGRK([Ahx-Ahx-γGlu-C20 diacid])GGGGEASELSTAALGRLSAELHELATLPRTETGSGSP-NH2 [Compound 0659] | – | – | 4.7 pM | 11.5 pM | –
9 | H-HAEGTFTSDVSK([AEEA-AEEA-γGlu-C16 diacid])YLEEQAVREFIAK([AEEA-AEEA-γGlu-C16 diacid])LVRGRGGGEASELSTAALGRLSAELHELATLPRTETGSGSP-NH2 [Compound 0482] | – | – | 36.5 pM | 31.8 pM | –
10 | H-H[Aib]EGTFTSDVSSYLEEQAAREFIEWLVRGK(Butyryl(4-SO2NHCO(CH2)16Tz))ASELSTAALGRLSAELHELATLPRTETGSGSP-NH2 [Compound 0147] | – | – | 36.8 pM | 33.7 pM | –
11 | H-H[Aib]EGTFTSDVSSYLEGQAAK([AEEA-AEEA-γGlu-C18 diacid])EFIAWLVRGRGGGGEASELSTAALGRLSAELHELATLPRTETGSGSP-NH2 [Compound 0040] | – | – | 20.7 pM | 7.7 pM | –
12 | H-H[Aib]EGTFTSDVSSYLEGQAAK([εLys-AEEA-AEEA-γGlu-C18 diacid])EFIAWLVRGRGGGGGGGGGEASELSTAALGRLSAELHELATLPRTETGSGSP-NH2 [Compound 0159] | – | – | 30.3 pM | 19.3 pM | –
13 | H-H[Aib]EGTFTSDVSSYLEEQAAREFIAWLVRGRK([εLys-εLys-γGlu-C18 diacid])GGGGEASELSTAALGRLSAELHELATLPRTETGSGSP-NH2 [Compound 0656] | – | – | 4.1 pM | 13.3 pM | –
14 | H-HWEGTFTSDVSSYLEEQAARK([AEEA-AEEA-γGlu-Undecanoyl(11-OPh(4-COOH))])FIEWLVRGRGEGGGGGASELSTAALGRLSK([AEEA-AEEA-γGlu-Undecanoyl(11-OPh(4-COOH))])ELHELATLPRTETGSGSP-NH2 [Compound 0255] | 2.5 pM | 28.6 pM | – | – | –
15 | H-H[Aib]EGTFTSDVSSYLEGQAAK([AEEA-AEEA-γGlu-C20 diacid])EFIAWLVRGRGQAPGQEPEASELSTAALGRLSAELHELATLPRTETGSGSP-NH2 [Compound 0157] | – | – | 28.7 pM | 18.4 pM | –
16 | H-H[Aib]EGTFTSDVSSYLEGQAAK([AEEA-AEEA-γGlu-C18 diacid])EFIAWLVRGRGGGGGGGGGGGGGGGGGEASELSTAALGRLSAELHELATLPRTETGSGSP-NH2 [Compound 0093] | – | – | 7.5 pM | 8.6 pM | –
17 | HWEGTFTSDVSSYLEEQAARK([AEEA-AEEA-γGlu-Decanoyl(10-(4-HOOC-PhO))])FIEWLVRGK([AEEA-AEEA-γGlu-Decanoyl(10-(4-HOOC-PhO))])GEGEASELSTAALGRLSAELHELATLPRTETGSGSP-NH2 [Compound 0099] | 9.6 pM | 44.9 pM | – | – | –
18 | H-H[Aib]EGTFTSDVSK([AEEA-X1])YLEEQAAREFIAWLVRGRGGGGGEASELSTAALGRLSAELHELATLPRTETGSGSP-NH2 [Compound 0564] | – | – | 24.5 pM | 14.5 pM | –
19 | H-H[Aib]EGTFTSDVSSYLEGQAAK([AEEA-AEEA-γGlu-C18 diacid])EFIAWLVRGRGGQEPGQEPK([γGlu-γGlu-C20 diacid])CNTATCATQRLADFLRHSSPNFGAIPSSTNVGSRTY-NH2 (disulfide 41-46) [Comparator compound 0668, reference compound] | – | – | – | – | do not activate the amylin receptor
20 | H-H[Aib]EGTFTSDVSSYLEEQAARK([AEEA-AEEA-γGlu-γGlu-γGlu-C20 diacid])FIEWLVRGRQEAASELSTAALGRLSAELHQLATLPRTETGSGSP-NH2 [Compound 0636] | – | – | – | 8.5 pM | –
21 | CC[C@H](C)[C@H](NC(=O)[C@H](Cc1ccccc1)NC(=O)[C@H](CCCCNC(=O)COCCOCCNC(=O)COCCOCCNC(=O)CC[C@H](NC(=O)CCCCCCCCCCCCCCCCC(=O)O)C(=O)O)NC(=O)[C@H](CCCNC(=N)N)NC(=O)[C@H](C)NC(=O)[C@H](C)NC(=O)[C@H](CCC(N)=O)NC(=O)[C@H](CCC(=O)O)NC(=O)[C@H](CCC(=O)O)NC(=O)[C@H](CC(C)C)NC(=O)[C@H](Cc1ccc(O)cc1)NC(=O)[C@H](CO)NC(=O)[C@H](CO)NC(=O)[C@@H](NC(=O)[C@H](CC(=O)O)NC(=O)[C@H](CO)NC(=O)[C@@H](NC(=O)[C@H](Cc1ccccc1)NC(=O)[C@@H](NC(=O)CNC(=O)[C@H](CCC(=O)O)NC(=O)C(C)(C)NC(=O)[C@@H](N)Cc1c[nH]cn1)[C@@H](C)O)[C@@H](C)O)C(C)C)C(=O)N[C@@H](CCC(=O)O)C(=O)N[C@@H](Cc1c[nH]c2ccccc12)C(=O)N[C@@H](CC(C)C)C(=O)N[C@H](C(=O)N[C@@H](CCCNC(=N)N)C(=O)NCC(=O)N[C@@H](CCCCNC(=O)COCCOCCNC(=O)COCCOCCNC(=O)CC[C@H](NC(=O)CCCCCCCCCCCCCCCCC(=O)O)C(=O)O)C(=O)NCC(=O)N[C@@H](CCC(=O)O)C(=O)NCC(=O)N[C@@H](CCC(N)=O)C(=O)N[C@@H](CCC(=O)O)C(=O)N1CCC[C@H]1C(=O)NCC(=O)NCC(=O)N[C@@H](C)C(=O)N[C@@H](CO)C(=O)N[C@@H](CCC(=O)O)C(=O)N[C@@H](CC(C)C)C(=O)N[C@@H](CO)C(=O)N[C@H](C(=O)N[C@@H](C)C(=O)N[C@@H](C)C(=O)N[C@@H](CC(C)C)C(=O)NCC(=O)N[C@@H](CCCNC(=N)N)C(=O)N[C@@H](CC(C)C)C(=O)N[C@@H](CO)C(=O)N[C@@H](C)C(=O)N[C@@H](CCC(=O)O)C(=O)N[C@@H](CC(C)C)C(=O)N[C@@H](Cc1c[nH]cn1)C(=O)N[C@@H](CCC(=O)O)C(=O)N[C@@H](CC(C)C)C(=O)N[C@@H](C)C(=O)N[C@H](C(=O)N[C@@H](CC(C)C)C(=O)N1CCC[C@H]1C(=O)N[C@@H](CCCNC(=N)N)C(=O)N[C@H](C(=O)N[C@@H](CCC(=O)O)C(=O)N[C@H](C(=O)NCC(=O)N[C@@H](CO)C(=O)NCC(=O)N[C@@H](CO)C(=O)N1CCC[C@H]1C(N)=O)[C@@H](C)O)[C@@H](C)O)[C@@H](C)O)[C@@H](C)O)C(C)C [Compound 0106] | – | – | – | 28.4 pM | –
